Here are results for 28 molecules from US12344597B2, “Alkoxy-substituted pyridinyl derivatives as LPA1 receptor antagonists and their use in the treatment of fibrosis” (IDORSIA PHARMACEUTICALS LTD, priority 2018, dated 2025).

The experiment has as its target human LPA1 receptor (Homo sapiens (Human), UniProt Q92633). As to the kind of experiment: Beta-arrestin recruitment assay to determine IC50 values for human LPAR1. The class given is cell-based. Particulars: antagonist mode, Tango EDG2-bla U2OS cells, LPA 18:1 500 nM final. In a few lines: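 Antagonist IC50 = concentration giving 50% inhibition of maximal LPA response. Read-out is beta-lactamase reporter activity after arrestin-protease recruitment in U2OS cells bearing LPA1-TEV-Gal4-VP16 construct; cells pre-incubated 20 h, 37 °C, 5% CO2.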
Background: Arrestin recruitment assays detect the binding of arrestin to an activated receptor.

SMILES strings stand for the structures.

Chain of human LPA1 receptor (Q92633 whole entry, the tested form may be a part): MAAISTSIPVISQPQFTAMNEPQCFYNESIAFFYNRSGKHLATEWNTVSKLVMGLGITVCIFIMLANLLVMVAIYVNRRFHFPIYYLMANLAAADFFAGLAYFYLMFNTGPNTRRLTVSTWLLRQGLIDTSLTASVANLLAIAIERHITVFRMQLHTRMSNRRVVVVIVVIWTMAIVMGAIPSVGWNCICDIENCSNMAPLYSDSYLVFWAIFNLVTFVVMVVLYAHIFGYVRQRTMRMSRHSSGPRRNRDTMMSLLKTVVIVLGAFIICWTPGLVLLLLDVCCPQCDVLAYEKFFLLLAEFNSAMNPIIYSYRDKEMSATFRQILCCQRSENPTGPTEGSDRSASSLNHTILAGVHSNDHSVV

The molecule `COC(=O)CCS(=O)(=O)N1CCC(C(=O)Nc2ccc(C)nc2OC(F)F)(c2ccccc2C(C)C)CC1` [Ex 13-6, methyl 3-((4-((2-(difluoromethoxy)-6-methylpyridin-3-yl)carbamoyl)-4-(2-isopropylphenyl)piperidin-1-yl)sulfonyl)propanoate] had a half-inhibitory concentration (IC50) of 26 nM.
`Cc1ccc(NC(=O)C2(c3ccccc3C(C)C)CCN(S(=O)(=O)CCC(=O)OCc3ccccc3)CC2)c(OC(F)F)n1` [Ex 13-7, benzyl 3-((4-((2-(difluoromethoxy)-6-methylpyridin-3-yl)carbamoyl)-4-(2-isopropylphenyl)piperidin-1-yl)sulfonyl)propanoate] returned an IC50 of 17 nM.
In the case of `Cc1ccc(NC(=O)C2(c3ccccc3C(C)C)CCN(S(=O)(=O)CCC(=O)O)CC2)c(OC(F)F)n1` [Ex 13-8, 3-((4-((2-(difluoromethoxy)-6-methylpyridin-3-yl)carbamoyl)-4-(2-isopropylphenyl)piperidin-1-yl)sulfonyl)propanoic acid], half-maximal inhibition (IC50) was put at 7 nM.
The same measure for `CC(C)c1ccccc1C1(C(=O)Nc2cccnc2OC(F)F)CN(S(=O)(=O)CCC(=O)OCc2ccccc2)C1` [Ex 13-9, benzyl 3-((3-((2-(difluoromethoxy)pyridin-3-yl)carbamoyl)-3-(2-isopropylphenyl)azetidin-1-yl)sulfonyl)propanoate]: 37 nM; for `CC(C)c1ccccc1C1(C(=O)Nc2cccnc2OC(F)F)CN(S(=O)(=O)CCC(=O)O)C1` [Ex 13-10, 3-((3-((2-(difluoromethoxy)pyridin-3-yl)carbamoyl)-3-(2-isopropylphenyl)azetidin-1-yl)sulfonyl)propanoic acid]: 20 nM; for `COC(=O)C(C)(C)CS(=O)(=O)N1CC(C(=O)Nc2ccc(C)nc2OC(F)F)(c2ccccc2C(C)C)C1` [Ex 13-11, methyl 3-((3-((2-(difluoromethoxy)-6-methylpyridin-3-yl)carbamoyl)-3-(2-isopropylphenyl)azetidin-1-yl)sulfonyl)-2,2-dimethylpropanoate]: 366 nM.
In turn, `Cc1ccc(NC(=O)C2(c3ccccc3C(C)C)CN(S(=O)(=O)CC(C)(C)C(=O)O)C2)c(OC(F)F)n1` [Ex 13-12, 3-((3-((2-(difluoromethoxy)-6-methylpyridin-3-yl)carbamoyl)-3-(2-isopropylphenyl)azetidin-1-yl)sulfonyl)-2,2-dimethylpropanoic acid] had an IC50 of 4 nM.
The same measure for `CCOC(=O)CC1(S(=O)(=O)N2CC(C(=O)Nc3ccc(C)nc3OC(F)F)(c3ccccc3C(C)C)C2)CC1` [Ex 13-13, ethyl 2-(1-((3-((2-(difluoromethoxy)-6-methylpyridin-3-yl)carbamoyl)-3-(2-isopropylphenyl)azetidin-1-yl)sulfonyl)cyclopropyl)acetate]: 1760 nM; for `Cc1ccc(NC(=O)C2(c3ccccc3C(C)C)CN(S(=O)(=O)C3(CC(=O)O)CC3)C2)c(OC(F)F)n1` [Ex 13-14, 2-(1-((3-((2-(difluoromethoxy)-6-methylpyridin-3-yl)carbamoyl)-3-(2-isopropylphenyl)azetidin-1-yl)sulfonyl)cyclopropyl)acetic acid]: 10 nM; for `COC(=O)C1(CS(=O)(=O)N2CC(C(=O)Nc3ccc(C)nc3OC(F)F)(c3ccccc3C(C)C)C2)COC1` [Ex 13-15, methyl 3-(((3-((2-(difluoromethoxy)-6-methylpyridin-3-yl)carbamoyl)-3-(2-isopropylphenyl)azetidin-1-yl)sulfonyl)methyl)oxetane-3-carboxylate]: 280 nM.
The same measure for `Cc1ccc(NC(=O)C2(c3ccccc3C(C)C)CN(S(=O)(=O)CC3(C(=O)O)COC3)C2)c(OC(F)F)n1` [Ex 13-16, 3-(((3-((2-(difluoromethoxy)-6-methylpyridin-3-yl)carbamoyl)-3-(2-isopropylphenyl)azetidin-1-yl)sulfonyl)methyl)oxetane-3-carboxylic acid]: 16 nM; for `Cc1ccc(NC(=O)C2(c3ccccc3C(C)C)CN(S(=O)(=O)CCCC(=O)O)C2)c(OC(F)F)n1` [Ex 13-17, 4-((3-((2-(difluoromethoxy)-6-methylpyridin-3-yl)carbamoyl)-3-(2-isopropylphenyl)azetidin-1-yl)sulfonyl)butanoic acid]: 7 nM; for `COC(=O)CCCCS(=O)(=O)N1CC(C(=O)Nc2ccc(C)nc2OC(F)F)(c2ccccc2C(C)C)C1` [Ex 13-18, methyl 5-((3-((2-(difluoromethoxy)-6-methylpyridin-3-yl)carbamoyl)-3-(2-isopropylphenyl)azetidin-1-yl)sulfonyl)pentanoate]: 72 nM.
Then `Cc1ccc(NC(=O)C2(c3ccccc3C(C)C)CN(S(=O)(=O)CCCCC(=O)O)C2)c(OC(F)F)n1` [Ex 13-19, 5-((3-((2-(difluoromethoxy)-6-methylpyridin-3-yl)carbamoyl)-3-(2-isopropylphenyl)azetidin-1-yl)sulfonyl)pentanoic acid], with 55 nM; and `COC(=O)/C=C/S(=O)(=O)N1CC(C(=O)Nc2ccc(C)nc2OC(F)F)(c2ccccc2C(C)C)C1` [Ex 13-20, methyl (E)-3-((3-((2-(difluoromethoxy)-6-methylpyridin-3-yl)carbamoyl)-3-(2-isopropylphenyl)azetidin-1-yl)sulfonyl)acrylate], with 18 nM.
As to `Cc1ccc(NC(=O)C2(c3ccccc3C(C)C)CN(S(=O)(=O)/C=C/C(=O)O)C2)c(OC(F)F)n1` [Ex 13-21, (E)-3-((3-((2-(difluoromethoxy)-6-methylpyridin-3-yl)carbamoyl)-3-(2-isopropylphenyl)azetidin-1-yl)sulfonyl)acrylic acid], the IC50 came to 14 nM.
Then `COC(=O)c1[nH]ncc1S(=O)(=O)N1CC(C(=O)Nc2ccc(C)nc2OC(F)F)(c2ccccc2C(C)C)C1` [Ex 13-22, methyl 4-((3-((2-(difluoromethoxy)-6-methylpyridin-3-yl)carbamoyl)-3-(2-isopropylphenyl)azetidin-1-yl)sulfonyl)-1H-pyrazole-5-carboxylate], with 270 nM; and `Cc1ccc(NC(=O)C2(c3ccccc3C(C)C)CN(S(=O)(=O)c3cn[nH]c3C(=O)O)C2)c(OC(F)F)n1` [Ex 13-23, 4-((3-((2-(difluoromethoxy)-6-methylpyridin-3-yl)carbamoyl)-3-(2-isopropylphenyl)azetidin-1-yl)sulfonyl)-1H-pyrazole-5-carboxylic acid], with 100 nM.
Consider `CCOC(=O)c1cn[nH]c1S(=O)(=O)N1CC(C(=O)Nc2ccc(C)nc2OC(F)F)(c2ccccc2C(C)C)C1` [Ex 13-24, ethyl 5-((3-((2-(difluoromethoxy)-6-methylpyridin-3-yl)carbamoyl)-3-(2-isopropylphenyl)azetidin-1-yl)sulfonyl)-1H-pyrazole-4-carboxylate], for which the half-inhibitory concentration (IC50) was 750 nM.
Take `Cc1ccc(NC(=O)C2(c3ccccc3C(C)C)CN(S(=O)(=O)c3[nH]ncc3C(=O)O)C2)c(OC(F)F)n1` [Ex 13-25, 5-((3-((2-(difluoromethoxy)-6-methylpyridin-3-yl)carbamoyl)-3-(2-isopropylphenyl)azetidin-1-yl)sulfonyl)-1H-pyrazole-4-carboxylic acid]: the half-inhibitory concentration (IC50) is 400 nM.
Then `COC(=O)c1cc(S(=O)(=O)N2CC(C(=O)Nc3ccc(C)nc3OC(F)F)(c3ccccc3C(C)C)C2)on1` [Ex 13-26, methyl 5-((3-((2-(difluoromethoxy)-6-methylpyridin-3-yl)carbamoyl)-3-(2-isopropylphenyl)azetidin-1-yl)sulfonyl)isoxazole-3-carboxylate], with 25 nM; and `COC(CC(=O)O)S(=O)(=O)N1CC(C(=O)Nc2ccc(C)nc2OC(F)F)(c2ccccc2C(C)C)C1` (stereo not shown) [Ex 13-27, 3-((3-((2-(difluoromethoxy)-6-methylpyridin-3-yl)carbamoyl)-3-(2-isopropylphenyl)azetidin-1-yl)sulfonyl)-3-methoxypropanoic acid], with 28 nM.
Then `Cc1ccc(NC(=O)C2(c3ccccc3C(C)C)CN(S(=O)(=O)CCC(=O)NOCc3ccccc3)C2)c(OC(F)F)n1` [Ex 13-28, 1-((3-((benzyloxy)amino)-3-oxopropyl)sulfonyl)-N-(2-(difluoromethoxy)-6-methylpyridin-3-yl)-3-(2-isopropylphenyl)azetidine-3-carboxamide], with 110 nM; and `Cc1ccc(NC(=O)C2(c3ccccc3C(C)C)CN(S(=O)(=O)CCC(=O)NO)C2)c(OC(F)F)n1` [Ex 13-29, N-(2-(difluoromethoxy)-6-methylpyridin-3-yl)-1-((3-(hydroxyamino)-3-oxopropyl)sulfonyl)-3-(2-isopropylphenyl)azetidine-3-carboxamide], with 10 nM; and `Cc1ccc(NC(=O)C2(c3ccccc3C(C)C)CN(S(=O)(=O)CCCS(=O)(=O)O)C2)c(OC(F)F)n1` [Ex 13-30, 3-((3-((2-(difluoromethoxy)-6-methylpyridin-3-yl)carbamoyl)-3-(2-isopropylphenyl)azetidin-1-yl)sulfonyl)propane-1-sulfonic acid], with 49 nM.
The same measure for `Cc1ccc(NC(=O)C2(c3ccccc3C(C)C)CN(C(=O)OCC(=O)O)C2)c(OC(F)F)n1` [Ex 14-1, 2-((3-((2-(difluoromethoxy)-6-methylpyridin-3-yl)carbamoyl)-3-(2-isopropylphenyl)azetidine-1-carbonyl)oxy)acetic acid]: 12 nM; for `Cc1ccc(NC(=O)C2(c3ccccc3C(C)C)CCN(C(=O)OCC(=O)O)CC2)c(OC(F)F)n1` [Ex 14-2, 2-((4-((2-(difluoromethoxy)-6-methylpyridin-3-yl)carbamoyl)-4-(2-isopropylphenyl)piperidine-1-carbonyl)oxy)acetic acid]: 4.3 nM; for `Cc1ccc(NC(=O)C2(c3ccccc3C(C)C)CCN(C(=O)OCC(=O)O)CC2)c(OC(F)F)n1` [Ex 14-3, 2-((4-((2-(difluoromethoxy)-6-methylpyridin-3-yl)carbamoyl)-4-(2-isopropylphenyl)piperidine-1-carbonyl)oxy)acetic acid]: 6 nM.

As usually defined, the IC50 is the midpoint of a concentration-inhibition curve. Lower therefore signals greater potency.
